Data reported in patent publication US11236052B2, “Aminobenzimidazole derivatives, treatments, and methods of inhibiting histone deacetylase” (TRANSLATIONAL DRUG DEVELOPMENT, LLC, priority 2017, dated 2022).
Read-outs that look alike come from different tables or passages of the source.

Tests used:
Permeability (PAMPA) = format: in vitro ADME; conditions: read-out: Permeabiltiy (PAMPA)
S9 in vitro half-life = format: in vitro ADME; conditions: S9 fraction
HDAC3 = HDAC3 (Homo sapiens (Human), UniProt O15379); test: In vitro HDAC enzyme inhibition, mobility shift; format: biochemical; conditions: purified enzyme
Chain of HDAC3 (O15379 whole entry): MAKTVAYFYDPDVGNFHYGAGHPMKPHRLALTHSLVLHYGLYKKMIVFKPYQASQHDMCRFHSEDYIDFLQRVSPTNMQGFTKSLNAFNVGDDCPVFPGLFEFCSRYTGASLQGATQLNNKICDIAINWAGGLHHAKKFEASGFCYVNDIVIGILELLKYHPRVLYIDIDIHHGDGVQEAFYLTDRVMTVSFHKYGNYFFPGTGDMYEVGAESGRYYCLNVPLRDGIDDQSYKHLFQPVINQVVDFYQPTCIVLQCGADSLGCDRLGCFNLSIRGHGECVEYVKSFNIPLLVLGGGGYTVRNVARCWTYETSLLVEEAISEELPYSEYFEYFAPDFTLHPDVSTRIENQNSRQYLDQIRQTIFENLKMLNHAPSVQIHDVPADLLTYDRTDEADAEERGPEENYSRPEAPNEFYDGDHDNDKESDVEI
Chain of HDAC3 (Q9Y618 395-489 partner): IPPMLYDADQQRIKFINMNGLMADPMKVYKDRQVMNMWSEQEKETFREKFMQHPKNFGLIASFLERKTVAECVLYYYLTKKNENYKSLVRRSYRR
Experimental: (§1) Purified histone deacetylase enzymes 1, 3, 6, 10 were incubated with fluorescently labeled substrate and test compounds in a standardized reaction mixture in 384 well plates. Upon termination of the reaction, samples were introduced onto microfluidic chips. Samples migrate through channels in the chips and product and substrate are separated based on the difference in their charge and mass (electrophoretic mobility shift). Enzyme activity is measured by direct comparison of the fluorescence in the product and substrate peaks and the results presented in Table 4.

HDAC1 = HDAC1 (Homo sapiens (Human), UniProt Q13547); test: In vitro HDAC enzyme inhibition, mobility shift; format: biochemical; conditions: purified enzyme
Chain of HDAC1 (Q13547 whole entry): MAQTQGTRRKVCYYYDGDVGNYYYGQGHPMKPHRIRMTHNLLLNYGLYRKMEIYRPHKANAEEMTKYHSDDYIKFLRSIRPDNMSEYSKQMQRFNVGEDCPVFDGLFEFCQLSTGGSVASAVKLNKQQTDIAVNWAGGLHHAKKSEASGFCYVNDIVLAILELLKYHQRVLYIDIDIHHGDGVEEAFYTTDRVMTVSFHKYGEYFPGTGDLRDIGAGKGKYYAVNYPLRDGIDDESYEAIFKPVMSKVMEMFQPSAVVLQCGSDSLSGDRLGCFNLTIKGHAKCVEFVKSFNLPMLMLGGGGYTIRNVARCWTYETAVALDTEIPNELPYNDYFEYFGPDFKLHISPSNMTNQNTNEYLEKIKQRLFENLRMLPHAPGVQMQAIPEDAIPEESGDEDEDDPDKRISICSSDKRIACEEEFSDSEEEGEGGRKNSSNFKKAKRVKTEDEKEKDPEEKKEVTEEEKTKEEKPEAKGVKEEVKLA
Experimental: as §1

HDAC6 = HDAC6 (Homo sapiens (Human), UniProt Q9UBN7); test: In vitro HDAC enzyme inhibition, mobility shift; format: biochemical; conditions: purified enzyme
Chain of HDAC6 (Q9UBN7 whole entry): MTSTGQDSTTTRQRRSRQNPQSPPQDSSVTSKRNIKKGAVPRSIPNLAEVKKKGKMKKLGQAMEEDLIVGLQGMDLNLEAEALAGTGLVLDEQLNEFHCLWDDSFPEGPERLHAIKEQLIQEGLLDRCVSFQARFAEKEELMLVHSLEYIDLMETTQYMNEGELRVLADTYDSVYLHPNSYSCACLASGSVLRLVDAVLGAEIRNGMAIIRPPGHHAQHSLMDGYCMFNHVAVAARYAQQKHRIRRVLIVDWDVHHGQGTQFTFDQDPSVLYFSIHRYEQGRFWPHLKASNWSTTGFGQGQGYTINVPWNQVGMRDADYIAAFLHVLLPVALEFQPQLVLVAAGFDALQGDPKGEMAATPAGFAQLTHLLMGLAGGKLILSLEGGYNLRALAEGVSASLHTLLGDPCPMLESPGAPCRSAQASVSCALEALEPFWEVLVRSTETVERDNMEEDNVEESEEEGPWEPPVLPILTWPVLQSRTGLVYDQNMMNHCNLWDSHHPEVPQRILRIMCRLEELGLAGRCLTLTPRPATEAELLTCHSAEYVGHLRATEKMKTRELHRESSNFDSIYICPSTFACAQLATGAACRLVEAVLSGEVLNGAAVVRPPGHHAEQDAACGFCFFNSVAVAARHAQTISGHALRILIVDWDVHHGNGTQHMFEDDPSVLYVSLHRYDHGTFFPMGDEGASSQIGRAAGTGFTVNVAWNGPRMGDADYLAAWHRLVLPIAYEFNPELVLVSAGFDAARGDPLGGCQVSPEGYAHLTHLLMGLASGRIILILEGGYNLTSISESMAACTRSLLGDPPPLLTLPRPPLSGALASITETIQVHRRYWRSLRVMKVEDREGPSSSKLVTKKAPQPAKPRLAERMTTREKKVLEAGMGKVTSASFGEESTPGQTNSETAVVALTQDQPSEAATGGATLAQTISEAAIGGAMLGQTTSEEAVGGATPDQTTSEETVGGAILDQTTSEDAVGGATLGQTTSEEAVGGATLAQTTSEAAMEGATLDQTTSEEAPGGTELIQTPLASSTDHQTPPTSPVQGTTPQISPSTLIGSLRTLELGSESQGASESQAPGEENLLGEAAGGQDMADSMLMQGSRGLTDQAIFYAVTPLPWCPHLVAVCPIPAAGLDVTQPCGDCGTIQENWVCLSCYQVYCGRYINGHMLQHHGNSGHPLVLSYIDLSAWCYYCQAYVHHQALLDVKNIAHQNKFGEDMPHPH
Experimental: as §1

HDAC10 = HDAC10 (Homo sapiens (Human), UniProt Q969S8); test: In vitro HDAC enzyme inhibition, mobility shift; format: biochemical; conditions: purified enzyme
Chain of HDAC10 (Q969S8 whole entry): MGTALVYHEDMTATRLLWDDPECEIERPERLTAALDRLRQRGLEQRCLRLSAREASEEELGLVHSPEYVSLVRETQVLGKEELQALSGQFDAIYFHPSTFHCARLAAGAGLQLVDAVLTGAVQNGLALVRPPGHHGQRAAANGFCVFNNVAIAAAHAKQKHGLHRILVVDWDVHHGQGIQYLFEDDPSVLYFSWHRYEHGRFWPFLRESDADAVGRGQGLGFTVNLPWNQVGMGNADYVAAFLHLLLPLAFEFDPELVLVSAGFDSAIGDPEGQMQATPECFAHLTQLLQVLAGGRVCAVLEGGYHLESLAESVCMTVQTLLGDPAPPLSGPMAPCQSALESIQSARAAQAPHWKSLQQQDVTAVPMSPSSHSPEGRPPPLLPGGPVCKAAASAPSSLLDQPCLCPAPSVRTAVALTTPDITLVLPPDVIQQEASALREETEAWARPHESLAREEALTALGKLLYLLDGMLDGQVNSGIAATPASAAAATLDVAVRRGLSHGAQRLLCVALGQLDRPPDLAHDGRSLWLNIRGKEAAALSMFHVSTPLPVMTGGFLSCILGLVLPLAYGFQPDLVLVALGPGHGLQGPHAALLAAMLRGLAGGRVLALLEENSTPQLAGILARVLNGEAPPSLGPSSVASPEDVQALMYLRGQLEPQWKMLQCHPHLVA
Experimental: as §1

[1] = Pharmacokinetic studies in the mouse; format: in vivo
Experimental: Plasma samples were collected from healthy mice and analyzed for levels of compound ID #1, ID #2, and ID #3 and reported in Table 5. In brief, compounds were individually and accurately weighed out to produce a stock solution in Dimethyl-sulfoxide (DMSO) at a concentration of 2 mg/mL and stored at −20° C. From the stock solution, a working stock was prepared by diluting it in Methanol-Water 50:50 (v/v) at 20 μg/mL for calibration curve preparation and stored at 4° C. Standards used for quantitation and quality control samples (QC's) were prepared on the same day of sample processing using blank plasma obtained from non-treated mice. For each analyte, standards were prepared through serial dilution of the working stock at concentrations of 0.1, 0.5, 1.0, 10, 50, 100, 500 and 1000 ng/mL; QC's were prepared at intermediate concentrations of 0.75, 7.5, 75 and 750 ng/mL. Plasma samples were stored at −80° C. until ready for analysis and then placed on ice for thawing. An aliquot of 20 μL for samples, standards and QC's, were transferred into a 96-well extraction plate according to a pre-defined layout. Appropriate volume of Methanol-Formic Acid 99.9-0.1 containing internal standard (Verapamil at 25 ng/mL) was added to each well and samples were extracted under vacuum. Eluent was then transferred into a LCMS plate for analysis using a suitable column for separation and MRM detection. Concentration of analytes was calculated based on the calibration curve and analyzed for pharmacokinetic parameters by using Non-compartmental analysis (NCA) using WinNonlin Phoenix software. Parameters such as Cmax, Tmax, half-life, AUC(0-last), AUC(0-∞), volume of distribution (Vss) and clearance (Cl/F) were reported.
The analogs were tested for pharmacokinetic analysis in the mouse with doses of 1 mg/kg for intravenous (IV) route and 5 mg/kg for oral (P0) route. […] Overall exposure following IV dose also favored compound ID #1 with AUCO-∞ 1488.1 hr*ng/mL whereas compound ID #2 and ID #3 were 329.1 and 1193.7 hr*ng/mL, respectively.

MM1.S cells = test: CellTiter-Glo cell viability assay, MM1.S cells; format: cell-based, human; conditions: Homo sapiens; MM1.S cells, 72 hours treatment; read-out: IC50 in MM1.S
Experimental: Cell viability in the presence of varying concentrations of the above listed compounds at different time points was used to assess cytotoxicity and the effect of the compounds on cell proliferation.
(§2) Cell Viability Assay—Cell viability was measured by the CellTiter-GlO® cell viability assay from Promega (Madison, Wis.). The CellTiter-GlO® Luminescent Cell Viability Assay is a homogeneous method to determine the number of viable cells in culture based on quantitation of the ATP present, which signals the presence of metabolically active cells. Following treatment, CellTiter-GlO® is added to treatment wells and incubated at 37° C. luminescence values were measured at using a Molecular Devices Spectramax microplate reader
(§3) Single Agent Studies—Cells were grown to 70% confluency, trypsinized, counted, and seeded in 96 well flat-bottom plates at a final concentration of 2.5×10^3-5×10^3 cells/well (Day 0). Cells were allowed to incubate in growth media for 24 hours. Treatment with the test agents or standard agents began on Day 1 and continued for 72 hours. At the 72 hour timepoint, treatment containing media was removed. Viable cell numbers are quantified by the CellTiter-GlO® cell viability assay as described above. Results from these studies were used to calculate an IC50 value (concentration of drug that inhibits cell growth by 50 percent of control) for each compound.
Data Collection—For single agent and combination studies, data from each experiment was collected and expressed as % Cell Growth using the following calculation: Cell Growth=(ftest/fvehicle)×100
Where ftest is the fluorescence of the tested sample, and fvehicle is the fluorescence of the vehicle in which the drug is dissolved. Dose response graphs and IC50 values were generated using Prism 6 software (GraphPad) using the following equation: […]
Where X is the logarithm of concentration and Y is the response. Y starts at the Bottom and goes to Top with a sigmoid shape.
as §2, with “CellTiter-Glo®” for “CellTiter-GlO®”, “assay” for “assay from”, “reader.” for “reader”
as §3, with “agents” for “agents or standard agents”, “72-hour time point, treatment-containing” for “72 hour timepoint, treatment containing”, “CellTiter-Glo®” for “CellTiter-GlO®”, “above. Experiments were run with triplicate concentrations to determine growth inhibitory activity.” for “above.”
Data Collection—For single agent and combination studies, data from each experiment was collected and expressed as % Cell Growth using the following calculation: % Cell Growth=(ftest/fvehicle)×100
Where ftest is the luminescence of the tested sample, and fvehicle is the luminescence of the vehicle in which the drug is dissolved. Dose response graphs and IC50 values were generated using Prism 6 software (GraphPad).

O=C(NO)c1ccc(Nc2nc3ccccc3n2C2CCCCC2)cc1 [ID #2, 4-((1-cyclohexyl-1H-benzo[d]imidazol-2-yl)amino)-N-hydroxybenzamide]
Papp (Permeability (PAMPA)): 1.65 ×10⁻⁶ cm/s | half-life (S9 in vitro half-life): > 1.5 h | IC50 (HDAC3): 0.068 µM | IC50 (HDAC1): 0.385 µM | IC50 (HDAC6): 0.015 µM | IC50 (HDAC10): 3.56 µM | AUC0-∞ ([1]; 1.0 mg/kg IV): 329.14 ng·h/mL | AUC % Extrap ([1]; 1.0 mg/kg IV): 1.44% | Cl/F obs ([1]; 1.0 mg/kg IV): 50.7 mL/min/kg | Rsq (>0.85) ([1]; 1.0 mg/kg IV): 0.85 | half-life ([1]; 1.0 mg/kg IV): 1.20 h | AUC % Extrap ([1]; 5.0 mg/kg PO): 0.14% | Cmax ([1]; 5.0 mg/kg PO): 407.10 ng/mL | Rsq (>0.85) ([1]; 5.0 mg/kg PO): 1.00 | AUC(0-t) ([1]; plasma, 1.0 mg/kg IV): 324 ng·h/mL | Tmax ([1]; plasma, 1.0 mg/kg IV): 0.08 h | half-life ([1]; plasma, 1.0 mg/kg IV, read-out: Half-life (converted)): 1.2 h | Vd ([1]; plasma, 1.0 mg/kg IV, read-out: Vss): 3.5 L/kg | AUC(0-t) ([1]; plasma, 5.0 mg/kg PO): 1280 ng·h/mL | CL/F ([1]; plasma, 5.0 mg/kg PO): 65.2 mL/min/kg | Tmax ([1]; plasma, 5.0 mg/kg PO): 0.5 h | bioavailability ([1]; plasma, 5.0 mg/kg PO): 77.6% | half-life ([1]; plasma, 5.0 mg/kg PO, read-out: Half-life (converted)): 2.56 h | Vd/F ([1]; plasma, 5.0 mg/kg PO, read-out: Vz/F obs): 14.5 L/kg | AUC(0-inf) ([1]; plasma, iv, 1 mg/kg, 1.0 mg/kg IV, read-out: AUC0-∞): 329 ng·h/mL | Cmax ([1]; plasma, iv, 1 mg/kg, 1.0 mg/kg IV, read-out: Cmax): 508 ng/mL | AUC(0-inf) ([1]; plasma, po, 5 mg/kg, 5.0 mg/kg PO, read-out: AUC0-∞): 1280 ng·h/mL | Cmax ([1]; plasma, po, 5 mg/kg, 5.0 mg/kg PO, read-out: Cmax): 407 ng/mL | AUC(0-inf) ([1]; plasma, po, 5 mg/kg, 5 mg/kg oral, read-out: AUC0-∞ (overall exposure following oral doses)): 1280 ng·h/mL | IC50 (MM1.S cells): 2000 nM

O=C(NO)c1ccc(Nc2nc3ccccc3n2CC2(F)CCCCC2)cc1 [ID #4]
IC50 (MM1.S cells): 2600 nM

O=C(NO)c1ccc(Nc2nc3ccccc3n2CC2CCCC2)cc1 [ID #5, 4-((1-(cyclopentylmethyl)-1H-benzo[d]imidazol-2-yl)amino)-N-hydroxybenzamide]
IC50 (MM1.S cells): 2200 nM

O=C(NO)c1ccc(Nc2nc3ccccc3n2CCC2CCCC2)cc1 [ID #6, 4-((1-(2-cyclopentylethyl)-1H-benzo[d]imidazol-2-yl)amino)-N-hydroxybenzamide]
IC50 (MM1.S cells): 1100 nM

O=C(NO)c1ccc(Nc2nc3ccccc3n2CC2CCC(F)(F)CC2)cc1 [ID #7]
IC50 (MM1.S cells): 700 nM

O=C(NO)c1ccc(Nc2nc3cc(F)ccc3n2CC2CCC(F)(F)CC2)cc1 [ID #8]
IC50 (MM1.S cells): 1200 nM

O=C(NO)c1ccc(Nc2nc3ccccc3n2CC2CCOCC2)cc1 [ID #9, N-hydroxy-4-((1-((tetrahydro-2H-pyran-4-yl)methyl)-1H-benzo[d]imidazol-2-yl)amino)benzamide]
IC50 (MM1.S cells): 2900 nM

O=C(NO)c1ccc(Nc2nc3cc(F)ccc3n2CC2CCOCC2)cc1 [ID #10, 4-((5-fluoro-1-((tetrahydro-2H-pyran-4-yl)methyl)-1H-benzo[d]imidazol-2-yl)amino)-N-hydroxybenzamide]
IC50 (MM1.S cells): 2900 nM
